According to a melting point compilation (Tetko et al.; mined from patent text by program, amines drawn as free bases though some values may be those of a salt):

| Structure (SMILES) | melting point |
| --- | --- |
| COc1ccc2c(c1)C(CC(=O)O)=C(C)C2=Cc1ccc(S(N)(=O)=O)cc1 | 224 to 225 °C |
| CCOCN(C(=O)CCl)c1c(C)cccc1[N+](=O)[O-] | 96 to 98 °C |
| CCOC(=O)c1cc(C=Cc2ccc(O)c(OC)c2)n[nH]1 | 99 to 101 °C |
| CC(=O)c1cc(CO)c(O)cc1O | 151 to 152 °C |
| COC(=O)C(=CNc1ccc(F)cc1)C(=O)C=Cc1ccc(Cl)cc1 | 166 to 168 °C |
| COc1cccc(Cc2cc(F)ccc2O)c1 | 153 to 155 °C |
| NC(=O)CNc1c(F)cc([N+](=O)[O-])cc1F | 160 to 162 °C |
| OCn1nnc2ccccc21 | 148 °C |
| CC(=C(Cl)Cl)c1ccccc1Nc1ccccc1C | 49 to 51 °C |
| COC(=O)c1cc(N)c2nc(C)nn2c1 | 212 °C |
| CC(=NO)C(C)(C)NCCCNC(C)(C)C(COCC(O)Cn1ccnc1[N+](=O)[O-])=NO (configuration not stated) | 72 to 73 °C |
| O=C(O)c1ccc(OCCn2ncc3nc(C(=O)NCc4cccc(OCCOc5nc[nH]n5)c4)[nH]c(=O)c32)cc1 | 176 to 178 °C |
| Cc1ccc(C(=O)/C=C/c2cc(C(C)(C)C)c3oc(=O)c(C(=O)O)cc3c2)cc1 | 185 to 186 °C |
| COCCc1nc2c(N)nc3ccccc3c2n1CCCCCCCCNC(=O)c1ccccc1 | 133 to 138 °C |
| COCCc1nc2c(N)nc3ccccc3c2n1CCCCNC(=O)c1c[nH]c2ccccc12 | 226 to 227 °C |
| Cc1c(-c2ccccc2)c(N2CC(N(C)C)C2)c2oc(C(C)(C)C)nc2c1C#N | 211 to 212 °C |
| O=C(Nc1cc(Cl)ncn1)c1ccccc1SSc1ccccc1C(=O)Nc1cc(Cl)ncn1 | 254 to 256 °C |
| C[C@H](CO)CN1CCC(c2noc3cc(F)ccc23)CC1 | 119 to 121 °C |
| Cn1c(C(=O)OC(C)(C)C)c(O)c2cc(OCc3ccccc3)ccc21 | 101 to 103 °C |
| OC1C(COC2CC2)OC(n2cnc3c(NCc4cccc(I)c4)ncnc32)C1O (configuration not stated) | 110 to 112 °C |
| CC(=O)N1CCC(c2nc(-c3ccncc3)c(-c3ccc(F)cc3)[nH]2)CC1 | 235 to 236 °C |
| CCC(=O)OC1C(CO)OC(n2cnc3c(N)ncnc32)C1OC(=O)CC (configuration not stated) | 172 to 173 °C |
| CC(=Cc1ccc(F)c(F)c1)C(=O)O | 122 to 125 °C |
| COC(=O)n1cc2c(c1)-c1ccc(Cl)cc1C(c1ccccc1Cl)=[N+]([O-])C2 | 224 to 226 °C |

| Structure (SMILES) | melting point |
| --- | --- |
| CSc1cnc(Cl)c(Cl)c1 | 66 to 67 °C |
| CCN(CC)CC1CCCCN1CC(C)(C)NC(=O)N1c2ccccc2C(=O)Nc2cccnc21 (configuration not stated) | 160 to 162 °C |
| Nc1ccc(-c2ccc3nnn(Cc4ccc5ncccc5c4)c3n2)cc1 | 190 to 193 °C |
| CCC(=NOC)C(=NO)C(=O)NC | 168 to 170 °C |
| CCCC1=C(C(=O)OCC)C(c2cccc3c2OCCC3)c2c[nH]nc2N1 (configuration not stated) | 159 to 161 °C |
| CCOCc1nc2c(N)nc(C)cc2n1CCCCNC(=O)N1CCOCC1 | 156 to 160 °C |
| O=S1(=O)CS(=O)(=O)OCCO1 | 176 to 180 °C |
| CC(C)n1c(=O)n(C)c(=O)c2c(S(=O)CCCO)n(C3Cc4ccccc4C3)cc21 (configuration not stated) | 164 to 165 °C |
| CNS(=O)(=O)c1csc(C(=O)OC)c1 | 142 °C |
| CC(C)(C)OC(=O)[C@@H]1CCC(=O)N1C(=O)OC(C)(C)C | 53 to 55 °C |
| COC(=O)CCC(=O)c1ccc(OCc2ccsc2)cc1O | 100 to 102 °C |
| COc1ccc(C=CC(=O)c2ccc(OC)c(CC=C(C)C)c2O)cc1 | 97 to 97.5 °C |
| CC(C)(C)OC(=O)N1CC=C(c2ccc3oc(-c4ccc(S(C)(=O)=O)cc4F)nc3c2)CC1 | 149 to 151 °C |
| COc1cc(OC)nc(O[C@H]2CCCC[C@H]2C(=O)O)n1 (relative stereo) | 151 to 152 °C |
| O=C(NCCOc1ccc(CC(Oc2ccc(F)cc2)C(=O)O)cc1)c1ccc(-c2ccccn2)cc1 (configuration not stated) | 139 to 140 °C |
| CN(C)C(C#N)C1(c2ccc(Cl)cc2)CCC1 (configuration not stated) | 90 to 91 °C |
| CC(C)CC(=O)Nc1cccc(-c2ccnc3c(-c4cccc(CN(C)C)c4)cnn23)c1 | 179 to 182 °C |
| CCOC(=O)c1cn(-c2ccccc2)nc1OCc1ccc(OCc2nc(-c3ccco3)oc2C)c(OC)c1 | 150 to 151 °C |
| COc1ccc(CNC(=NC#N)Nc2ccc(C3=NNC(=O)CC3C)cc2)cc1 (configuration not stated) | 231 to 233 °C |
| COc1cc2c(cc1OC)CC(=O)N(CC1CCCNC1)CC2 (configuration not stated) | 152 to 156 °C |
| O=c1[nH]c2cc(C(F)(F)F)ccc2n1CCCN1CCN(C(c2ccccc2)c2ccccc2)CC1 | 153 °C |
| COc1ccccc1N1CCN(C(=O)CCCN2CC=C(c3c[nH]c4cc(Cl)ccc34)CC2)CC1 | 93 to 95 °C |
| N#Cc1ccccc1C(F)(F)C(F)(F)c1ccccc1 | 84 to 86 °C |
| CCOC(=O)C=Cc1ccc(OCCc2nc(-c3ccccc3)oc2C)cc1 | 114 to 115 °C |

| Structure (SMILES) | melting point |
| --- | --- |
| N#CC1CCn2cccc21 (configuration not stated) | 44 to 45 °C |
| Nc1nc(CCl)cc(OCC(F)(F)F)n1 | 77 to 78 °C |
| Cc1cc(C2=c3ccc(=C4C(=O)c5ccccc5C4=O)cc3OC2=O)cc(C)c1N | > 250 °C |
| Cc1ccc(Cc2cnc(NCCCCc3cc(CN(C)C)ccn3)[nH]c2=O)cn1 | 135 to 137 °C |
| OCCC(CCO)c1ccncc1 | 66 to 68 °C |
| CCC1Cc2cc(OCC(=O)O)c(Cl)c(Cl)c2C1=O (configuration not stated) | 171 to 172 °C |
| COCC(OC(C)=O)C1CC(OC(C)=O)C2(C)CCC3C(CCC4CC(=O)CC(C)C43C)C12 (configuration not stated) | 149 to 150 °C |
| N#Cc1ccc(N2CCN(c3ccc(O)cc3)CC2)cc1 | 258 to 262 °C |
| CN(Cc1ccc(C(=O)Nc2ccc(Nc3cc(-c4cccc5c4oc4ccccc45)ncn3)cc2)cc1)C(=O)OC(C)(C)C | 225 to 230 °C |
| CCN(Cc1ccccc1OCc1ccccc1)c1ccc(C(=O)O)c(F)c1 | 154 °C |
| CC(=O)c1c[nH]c(-c2ccncc2)c1C | 210 to 211 °C |
| O=C1c2ccc(O)cc2C(=O)N1c1ccc(C2(c3ccc(N4C(=O)c5ccc(O)cc5C4=O)cc3)c3ccccc3-c3ccccc32)cc1 | > 300 °C |
| CCOCc1nc2c(N)nc3ccc(O)cc3c2n1CC(C)(C)NS(C)(=O)=O | 252 to 254 °C |
| CN(C)C(=O)Nc1cccc(CCC#N)c1 | 159 to 161 °C |
| CC(C)(C)OC(=O)Cn1c(C(=O)O)cc2cc(N)ccc21 | 128 °C |
| O=C(NC1CCCC1)c1ccc2nonc2c1 | 169 to 170 °C |
| COc1ccc(CS[C@H]2C[C@@H](C(=O)N3CCN(CCO)CC3)N(C(=O)OCc3ccc([N+](=O)[O-])cc3)C2)cc1 | 140 to 141 °C |
| Cc1nc(-n2ccccc2=O)sc1C(=O)NCc1ccccc1 | 180 to 182 °C |
| Nc1ccc(-c2ccccc2)cc1[N+](=O)[O-] | 163 to 165 °C |
| COc1ccc(OC)c(OCCO)c1 | 50 to 52 °C |
| COc1cc(OC)c([N+](=O)[O-])c(OC)c1N | 111 °C |
| Cc1cc(C)c2cccc(OCc3c(Cl)ccc(S(=O)(=O)N4CCC[C@H]4C(=O)NCCCNC(=O)c4ccc(C=NN)cc4)c3Cl)c2n1 | 178 to 180 °C |
| CNC(=O)NC1CCC(OC)c2sccc21 (configuration not stated) | 152 to 159 °C |
| C[C@@H]1CO[C@]2(CC[C@@H](OCc3ccccc3)C2)N1C(=O)c1ccccc1 | 85 to 86 °C |
